The test system of assay [1] is L6-myotubes. Kind of assay: Measurement of intracellular cAMP levels in differentiated L6-myotubes (Biological Example 3). The assay is classed as cell-based. The following applies: 0.25 h. The method, boiled down:
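Intracellular cAMP quantified by AlphaScreen after ethanol extraction and lysis of L6 myotubes. Cells were serum-starved overnight, then exposed for 15 min to compound (final 1×10^−5 M) or isoprenaline in IBMX-containing (1 mM) HBSS buffer, pH 7.4.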

Assay [2] relates to L6-myotubes. Description: Glucose uptake in differentiated L6-myotubes (Biological Example 2). The class given is cell-based. The note with it: read-out: Biological example 2 (GU). The essentials: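 Uptake was quantified as radioactivity in 0.2 M NaOH lysates after a 10 min pulse of 50 nM ^3H-2-deoxyglucose. The pulse followed two agonist exposures at 1×10^−5 M final (isoprenaline or test compound): 1 h 40 min, then 20 min in glucose-free medium after washing. L6 myotubes had been starved overnight in medium with 0.5% fatty-acid-free BSA.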

[3] abbreviates: intracellular cAMP, compound at 10 μM relative to isoproterenol at 10 μM.
[4] abbreviates: glucose uptake, compound at 10 μM relative to isoproterenol at 10 μM.
The mark [5] stands for this setting: intracellular cAMP in differentiated L6-myotubes, compound at 10 μM, activity relative to isoproterenol at 10 μM.
Setting [6] is: glucose uptake in differentiated L6-myotubes, compound at 10 μM, activity relative to isoproterenol at 10 μM.

Among the data in patent US20260216294A1, “BETA 2-ADRENERGIC RECEPTOR AGONISTS FOR TREATMENT OR PREVENTION OF MUSCLE WASTING” (ATROGI AB, priority 2023, published 2026) are Emax values, retold here.

As to `CCCCNC[C@H](O)c1cnc(N)nc1` [Compound 89, (R)-1-(2-amino-5-pyrimidinyl)-2-(butylamino)-1-ethanol], the figures for the Emax at 10 µM in the assay on L6-myotubes [1] (setting [3]) and with L6-myotubes [2] (setting [4]) were less than 25% and 50 to 75%, respectively.
As for `CC(C)(NC[C@H](O)c1cncc(F)c1)[C@H]1CC[C@H](OCC(=O)O)CC1` [Compound 419], the Emax at 10 µM with L6-myotubes [1] (setting [5]) is less than 25%; with L6-myotubes [2] (setting [6]), 50 to 75%.
As to `CCC[C@H]1CC[C@H]([C@H](O)c2cccc(O)c2)N1` [Compound 125, m-{(R)-[(2R,5S)-5-propyl-2-pyrrolidinyl] hydroxymethyl}phenol], the values for the Emax at 10 µM with L6-myotubes [1] (setting [3]) and in the assay on L6-myotubes [2] (setting [4]) were less than 25% and 50 to 75%, respectively.
For the compound `CCCCNCC(O)c1ccc(Cl)c(O)c1` (centres unmarked) [Compound 34, 2-(butylamino)-1-(4-chloro-3-hydroxyphenyl)-1-ethanol], the results for the Emax at 10 µM with L6-myotubes [1] (setting [3]) and in the assay on L6-myotubes [2] (setting [4]) were less than 25% and greater than 75%, respectively.
For `O[C@H](c1cccc(F)c1)C12CCC(CCCc3ccccc3)(CC1)N2` [Compound 536, (R)-(m-fluorophenyl){4-(3-phenylpropyl)-7-azabicyclo[[2.2.1]]hept-1-yl}methanol], the Emax at 10 µM in the assay on L6-myotubes [1] (setting [5]) is 25 to 50%; in the assay with L6-myotubes [2] (setting [6]), greater than 75%.
With `CC1(C)CCC[C@H]([C@H](O)c2cccc(F)c2)N1` [Compound 102], the results for the Emax at 10 µM with L6-myotubes [1] (setting [3]) and with L6-myotubes [2] (setting [4]) were less than 25% and 50 to 75%, respectively.
For the compound `CCC[C@@H]1CCC[C@H]([C@@H](O)c2cccc(O)c2)N1` [Compound 137, (S)-[(2R,6R)-6-propyl-2-piperidyl](m-hydroxyphenyl)methanol], the Emax at 10 µM was less than 25% in the assay on L6-myotubes [1] (setting [3]) and 25 to 50% with L6-myotubes [2] (setting [4]).
Take `Cc1c(F)cccc1[C@@H](O)CNC(C)(C)C` [Compound 150, (R)-2-(tert-butylamino)-1-(3-fluoro-2-tolyl)-1-ethanol]: the Emax at 10 µM with L6-myotubes [1] (setting [3]) is 25 to 50%; in the assay on L6-myotubes [2] (setting [4]) it was greater than 75%.
With `CC12CC(C1)[C@@H]([C@H](O)c1cccc(Cl)c1)N2` [Compound 209], the Emax at 10 µM in the assay with L6-myotubes [1] (setting [5]) was less than 25%; in the assay on L6-myotubes [2] (setting [6]), 25 to 50%.
Turning to `CO[C@H]1CC[C@H](C[C@@H]2CC[C@H]([C@@H](O)c3cncc(F)c3)N2)CC1` [Compound 332], the values for the Emax at 10 µM in the assay on L6-myotubes [1] (setting [5]) and in the assay on L6-myotubes [2] (setting [6]) were less than 25% and 25 to 50%, respectively.
As for `O[C@@H](CNC[C@H]1CC[C@H](OCc2ccccc2)CC1)c1cccc(F)c1` [Compound 271, (R)-1-(m-fluorophenyl)-2-({[(1r,4R)-4-(benzyloxy)cyclohexyl]methyl}amino)-1-ethanol], the Emax at 10 µM in the assay on L6-myotubes [1] (setting [5]) is less than 25%; in the assay on L6-myotubes [2] (setting [6]), 25 to 50%.
For the compound `CC1(C)CC[C@H]([C@H](O)c2ccccc2Cl)N1` [Compound 152, (R)-[(R)-5,5-dimethyl-2-pyrrolidinyl](o-chlorophenyl)methanol], the Emax at 10 µM in the assay with L6-myotubes [1] (setting [3]) is less than 25%; in the assay with L6-myotubes [2] (setting [4]) it was greater than 75%.
Regarding `CC(=O)N(Cc1ccccc1)[C@H]1CC[C@@H](C[C@@H]2CC[C@H]([C@H](O)c3cccc(F)c3)N2)CC1` [Compound 480, N-[(1R,4s)-4-({(2S,5R)-5-[(R)-(m-fluorophenyl) hydroxymethyl]-2-pyrrolidinyl}methyl)cyclohexyl]-N-benzylacetamide], the Emax at 10 µM in the assay with L6-myotubes [1] (setting [5]) and with L6-myotubes [2] (setting [6]) was less than 25% each time.
Consider `Oc1ccc(C(O)CNC23CC4CC(CC(C4)C2)C3)cc1` (centres unmarked) [Compound 11, p-[2-(1-adamantanylamino)-1-hydroxyethyl]phenol], for which the values for the Emax at 10 µM in the assay on L6-myotubes [1] (setting [3]) and with L6-myotubes [2] (setting [4]) were less than 25% and 25 to 50%, respectively.
Consider `CC(=O)N[C@H]1CC[C@H](CNC[C@H](O)c2cncc(F)c2)CC1` [Compound 309], for which the values for the Emax at 10 µM with L6-myotubes [1] (setting [5]) and in the assay with L6-myotubes [2] (setting [6]) were less than 25% and 50 to 75%, respectively.
As for `CCC[C@@H](C)NC[C@H](O)c1cccc(O)c1` [Compound 28, (R)-2-[(R)-1-methylbutylamino]-1-(m-hydroxyphenyl)-1-ethanol], the figures for the Emax at 10 µM with L6-myotubes [1] (setting [3]) and with L6-myotubes [2] (setting [4]) were 50 to 75% and greater than 75%, respectively.
Take `O[C@@H](c1cncc(F)c1)C12CCC(CCc3ccc(OC(F)(F)F)cc3)(CC1)N2` [Compound 543, (S)-(5-fluoro-3-pyridyl){4-[2-(p-trifluoromethoxyphenyl)ethyl]-7-azabicyclo[[2.2.1]]hept-1-yl}methanol]: the Emax at 10 µM with L6-myotubes [1] (setting [5]) and with L6-myotubes [2] (setting [6]) was less than 25% each time.
Turning to `CCCCNCC(O)c1ccc(O)c(Cl)c1` (centres unmarked) [Compound 20, 2-(butylamino)-1-(3-chloro-4-hydroxyphenyl)-1-ethanol], the Emax at 10 µM in the assay on L6-myotubes [1] (setting [3]) is less than 25%; with L6-myotubes [2] (setting [4]), 25 to 50%.
For the compound `CCCCNCC(O)c1cc(F)c(N)c(F)c1` (centres unmarked) [Compound 37, 1-(4-amino-3,5-difluorophenyl)-2-(butylamino)-1-ethanol], the Emax at 10 µM in the assay with L6-myotubes [1] (setting [3]) and with L6-myotubes [2] (setting [4]) was greater than 75% each time.
For the compound `CC(=O)N[C@H]1CC[C@H](C(C)(C)NC[C@H](O)c2cncc(F)c2)CC1` [Compound 346, N-[(1R,4r)-4-{1-[(R)-2-(5-fluoro-3-pyridyl)-2-hydroxyethylamino]-1-methylethyl}cyclohexyl] acetamide], the Emax at 10 µM was less than 25% with L6-myotubes [1] (setting [5]) and greater than 75% with L6-myotubes [2] (setting [6]).
Turning to `O[C@@H](c1cncc(F)c1)C12CCC(COCc3ccc(OC(F)(F)F)cc3)(CC1)N2` [Compound 489, (S)-(5-fluoro-3-pyridyl)(4-{[(p-trifluoromethoxyphenyl)methoxy]methyl}-7-azabicyclo[[2.2.1]]hept-1-yl)methanol], the Emax at 10 µM in the assay on L6-myotubes [1] (setting [5]) and in the assay with L6-myotubes [2] (setting [6]) was less than 25% in each case.
As to `CC(=O)N[C@H]1CC[C@@H](CC(C)(C)NC[C@H](O)c2cccc(C(F)(F)F)n2)CC1` [Compound 462], the Emax at 10 µM in the assay with L6-myotubes [1] (setting [5]) was less than 25%; in the assay with L6-myotubes [2] (setting [6]), 25 to 50%.
Take `CC1(C)C[C@@H]([C@H](O)c2cccc(Cl)c2)N1` [Compound 232]: the Emax at 10 µM in the assay with L6-myotubes [1] (setting [5]) was less than 25%; in the assay on L6-myotubes [2] (setting [6]) it was 25 to 50%.
Take `O[C@H](c1cccc(F)c1)C12CCC(Cc3ccc(OC(F)(F)F)cc3)(CC1)N2` [Compound 500, (S)-(m-fluorophenyl){4-[(p-trifluoromethoxyphenyl)methyl]-7-azabicyclo[[2.2.1]]hept-1-yl}methanol]: the Emax at 10 µM in the assay on L6-myotubes [1] (setting [5]) and with L6-myotubes [2] (setting [6]) was less than 25% each time.
Take `CC(C)(C)NC[C@H](O)c1cncc(F)c1` [Compound 99, (R)-2-(tert-butylamino)-1-(5-fluoro-3-pyridyl)-1-ethanol]: the values for the Emax at 10 µM with L6-myotubes [1] (setting [3]) and in the assay with L6-myotubes [2] (setting [4]) were 25 to 50% and greater than 75%, respectively.
As for `O[C@H](c1cccc(F)c1)C12CCC(COc3ccc(Cl)cc3)(CC1)N2` [Compound 441, (R)-{4-[(p-chlorophenoxy)methyl]-7-azabicyclo[[2.2.1]]hept-1-yl}(m-fluorophenyl)methanol], the Emax at 10 µM is less than 25% with L6-myotubes [1] (setting [5]) and greater than 75% in the assay with L6-myotubes [2] (setting [6]).
Regarding `Cn1ccc([C@@H](O)CNC(C)(C)C)cc1=O` [Compound 98, 4-[(R)-2-(tert-butylamino)-1-hydroxyethyl]-1-methyl-2(1H)-pyridinone], the Emax at 10 µM with L6-myotubes [1] (setting [3]) was less than 25%; in the assay with L6-myotubes [2] (setting [4]) it was greater than 75%.
Take `CCC[C@H]1CCC[C@H]([C@H](O)c2cccc(F)c2)N1` [Compound 69]: the results for the Emax at 10 µM with L6-myotubes [1] (setting [3]) and in the assay on L6-myotubes [2] (setting [4]) were less than 25% and 50 to 75%, respectively.
`Cc1ncccc1[C@@H](O)CNC(C)(C)C[C@H]1CC[C@H](NS(C)(=O)=O)CC1` [Compound 435, (R)-2-{1,1-dimethyl-2-[(1r,4R)-4-(mesylamino)cyclohexyl]ethylamino}-1-(2-methyl-3-pyridyl)-1-ethanol]: the Emax at 10 µM in the assay on L6-myotubes [1] (setting [5]) was less than 25%; in the assay on L6-myotubes [2] (setting [6]) it was 25 to 50%.
For the compound `CCCCNC[C@H](O)c1cccc(F)c1` [Compound 47, (R)-2-(butylamino)-1-(m-fluorophenyl)-1-ethanol], the Emax at 10 µM with L6-myotubes [1] (setting [3]) was less than 25%; in the assay on L6-myotubes [2] (setting [4]) it was 50 to 75%.
For `O[C@@H](c1cccc(F)c1)[C@H]1CCC2(CC2)N1` [Compound 171], in that order: less than 25% and 25 to 50%.
On to `CC(C)(C[C@H]1CC[C@H](NC(=O)OC(C)(C)C)CC1)NC[C@H](O)c1cccc(C(F)(F)F)n1` [Compound 459], for which the Emax at 10 µM with L6-myotubes [1] (setting [5]) is less than 25%; with L6-myotubes [2] (setting [6]), greater than 75%.
With `CC(C)(C[C@H]1CC[C@@H](NS(C)(=O)=O)CC1)NC[C@H](O)c1cccc(C(F)(F)F)n1` [Compound 463], the figures for the Emax at 10 µM in the assay with L6-myotubes [1] (setting [5]) and with L6-myotubes [2] (setting [6]) were less than 25% and 50 to 75%, respectively.
As to `CCCCNC[C@H](O)c1ccc(F)c(O)c1` [Compound 85, (R)-2-(butylamino)-1-(4-fluoro-3-hydroxyphenyl)-1-ethanol], the Emax at 10 µM in the assay with L6-myotubes [1] (setting [3]) was less than 25%; in the assay on L6-myotubes [2] (setting [4]), greater than 75%.
`CNS(=O)(=O)[C@H]1CC[C@H](CC(C)(C)NC[C@H](O)c2cncc(F)c2)CC1` [Compound 478, (R)-2-{1,1-dimethyl-2-[(1r,4R)-4-(methylaminosulfonyl)cyclohexyl]ethylamino}-1-(5-fluoro-3-pyridyl)-1-ethanol]: the results for the Emax at 10 µM in the assay on L6-myotubes [1] (setting [5]) and in the assay with L6-myotubes [2] (setting [6]) were less than 25% and 25 to 50%, respectively.
Turning to `CC(C)(C[C@H]1CC[C@@H](NS(C)(=O)=O)CC1)NC[C@@H](O)c1cccc(C#N)n1` [Compound 424, 6-[(R)-2-{1,1-dimethyl-2-[(1s,4S)-4-(mesylamino)cyclohexyl]ethylamino}-1-hydroxyethyl]-2-pyridinecarbonitrile], the Emax at 10 µM in the assay with L6-myotubes [1] (setting [5]) is less than 25%; in the assay with L6-myotubes [2] (setting [6]), 25 to 50%.
Regarding `CCC[C@H]1CCC[C@H]([C@@H](O)c2cccc(Cl)c2)N1` [Compound 128], the Emax at 10 µM is less than 25% in the assay with L6-myotubes [1] (setting [3]) and 25 to 50% with L6-myotubes [2] (setting [4]).
